According to PMC6927398 (Journal of the American Chemical Society, 2019):

Target: IvoA (Aspergillus nidulans, UniProt C8V7P4)
Assay: chiral HPLC of D-tryptophan formation, steady-state kinetics
Type: biochemical
Details: substrate inhibition; ATP-dependent stereoinversion, apparent constant

IvoA, sequence (C8V7P4 whole entry): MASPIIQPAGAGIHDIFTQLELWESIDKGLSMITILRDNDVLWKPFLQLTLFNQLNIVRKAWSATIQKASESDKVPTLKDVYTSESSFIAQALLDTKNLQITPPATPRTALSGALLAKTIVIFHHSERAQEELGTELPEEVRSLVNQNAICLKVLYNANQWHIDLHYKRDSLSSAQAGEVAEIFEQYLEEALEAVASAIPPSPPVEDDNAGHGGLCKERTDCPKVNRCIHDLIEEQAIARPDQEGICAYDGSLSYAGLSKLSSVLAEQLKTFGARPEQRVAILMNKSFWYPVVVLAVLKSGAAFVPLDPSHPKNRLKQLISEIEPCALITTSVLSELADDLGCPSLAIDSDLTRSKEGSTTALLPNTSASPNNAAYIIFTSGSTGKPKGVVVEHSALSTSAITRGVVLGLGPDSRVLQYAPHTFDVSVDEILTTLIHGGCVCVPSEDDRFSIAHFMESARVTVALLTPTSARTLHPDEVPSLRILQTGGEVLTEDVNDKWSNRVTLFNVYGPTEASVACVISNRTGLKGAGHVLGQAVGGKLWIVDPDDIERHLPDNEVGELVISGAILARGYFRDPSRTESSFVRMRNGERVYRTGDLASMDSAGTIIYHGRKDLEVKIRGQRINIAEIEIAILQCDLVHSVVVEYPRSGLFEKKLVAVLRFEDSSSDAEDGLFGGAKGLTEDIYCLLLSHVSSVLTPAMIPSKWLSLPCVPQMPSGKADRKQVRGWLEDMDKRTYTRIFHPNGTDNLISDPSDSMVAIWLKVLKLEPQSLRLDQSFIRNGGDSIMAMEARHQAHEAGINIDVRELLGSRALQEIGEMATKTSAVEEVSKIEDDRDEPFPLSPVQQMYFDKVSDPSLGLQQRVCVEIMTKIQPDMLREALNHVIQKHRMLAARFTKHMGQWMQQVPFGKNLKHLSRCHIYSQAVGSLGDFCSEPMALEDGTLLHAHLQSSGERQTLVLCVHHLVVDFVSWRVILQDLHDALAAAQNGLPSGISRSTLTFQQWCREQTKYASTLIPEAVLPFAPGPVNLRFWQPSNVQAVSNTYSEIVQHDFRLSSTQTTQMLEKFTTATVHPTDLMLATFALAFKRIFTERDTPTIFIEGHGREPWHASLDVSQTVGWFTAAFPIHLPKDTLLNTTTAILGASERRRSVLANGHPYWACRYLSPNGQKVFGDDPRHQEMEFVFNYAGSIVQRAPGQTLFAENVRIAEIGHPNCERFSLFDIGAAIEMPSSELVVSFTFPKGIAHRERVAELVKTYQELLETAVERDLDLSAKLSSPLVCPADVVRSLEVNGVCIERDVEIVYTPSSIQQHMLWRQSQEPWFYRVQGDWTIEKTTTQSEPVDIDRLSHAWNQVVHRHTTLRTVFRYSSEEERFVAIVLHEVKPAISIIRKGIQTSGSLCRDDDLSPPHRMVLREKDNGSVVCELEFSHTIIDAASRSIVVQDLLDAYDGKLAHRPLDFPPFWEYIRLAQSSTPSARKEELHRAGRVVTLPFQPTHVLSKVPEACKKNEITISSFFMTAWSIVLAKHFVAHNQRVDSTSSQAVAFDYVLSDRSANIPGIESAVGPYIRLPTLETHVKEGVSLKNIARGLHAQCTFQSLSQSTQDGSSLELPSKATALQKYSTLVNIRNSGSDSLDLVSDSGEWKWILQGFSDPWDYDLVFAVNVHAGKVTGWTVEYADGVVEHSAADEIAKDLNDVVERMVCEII

- Ki app: 4 ± 1 mM
Compound: N[C@@H](Cc1c[nH]c2ccccc12)C(=O)O [L-tryptophan]
